The values that follow come from patent US5214156A, “Therapeutically useful tetralin derivatives” (The Upjohn Company, priority 1992, dated 1993).

One series relates to dopamine receptors. As to conditions: background; cited from earlier work.
The test system of another series is 5-HT receptor. The series is described as follows: In-vivo tryptophan hydroxylation (5-HTP formation) in limbic forebrain of reserpine-pretreated rats after NSD 1015. The arrangement: species or system rat. As to conditions: limbic brain part. The method, then: In-vivo determination of rat brain tyrosine and tryptophan hydroxylation after reserpine pretreatment (biochemically monitored dopamine and 5-HT receptor activity)
The compounds under evaluation were tested biochemically for central dopamine and 5-HT receptor (pre- and/or postsynaptic) stimulating activity. The concept of this biochemical screening method is that a dopamine or 5-HT-receptor agonist will stimulate the receptor and through regulatory feedback systems effect a decline in tyrosine or tryptophan hydroxylating activity, respectively, and a subsequent reduction in the synthesis rate for dopamine and 5-HT in the presynaptic neuron. Dopamine and 5-HTP formation, as determined after in-vivo inhibition of the aromatic L-amino acid decarboxylase with NSD 1015 (3-hydroxybenzylhydrazine hydrochloride) are taken as indirect measures of dopamine and 5-HT-synthesis rates, respectively.
(§1) Rats (150-300 g) pretreated with reserpine (5 mg/kg, 18 hours before) were given the test compounds. Gross behavioral observations (changes in motility, hindleg abduction, etc.) were made. Subsequent administration of NSD 1015, decapitation, brain dissection (corpora striata, the limbic forebrain and the remaining hemispheral portions (mainly cortex) or rat brain), homogenization, centrifugation, ion-exchange chromatography and spectrofluorimetric measurements (all as described in detail by Wikstrom, et al., J. Med. Chem., 21, 864-867, 1978 and reference cited therein), or by HPLC/EC, gave the actual dopamine and 5-HTP levels. Several doses (n-4-6) were tested for each compound and brain area. The dose of a compound giving 50% of the maximal reduction of the %-HTP level in the rat brain part was then estimated.
^b Dose giving a half maximal decrease of 5HTP formation in the rat
limbic brain part. The values were estimated from doseresponse curves
comprising 4 to 6 levels (n = 4).
Control level was: 191 ng/g.

Another series has as its target T1, 5-HT1A receptor (Homo sapiens, UniProt P08908).
T1 sequence (P08908 1-422): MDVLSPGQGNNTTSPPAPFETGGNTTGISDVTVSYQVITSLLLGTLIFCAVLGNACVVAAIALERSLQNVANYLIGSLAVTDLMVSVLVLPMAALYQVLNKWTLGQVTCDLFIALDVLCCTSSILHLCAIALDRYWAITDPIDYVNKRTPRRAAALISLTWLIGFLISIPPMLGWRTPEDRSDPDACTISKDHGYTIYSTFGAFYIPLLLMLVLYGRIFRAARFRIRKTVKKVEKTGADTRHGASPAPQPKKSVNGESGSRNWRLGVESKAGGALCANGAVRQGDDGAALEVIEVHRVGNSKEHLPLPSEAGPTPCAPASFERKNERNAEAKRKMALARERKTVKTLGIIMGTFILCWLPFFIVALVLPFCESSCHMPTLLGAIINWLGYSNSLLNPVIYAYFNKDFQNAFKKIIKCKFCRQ
The series is described as follows: In vitro binding, 5-HT1A. The source says:
The compounds of this invention where --OR1 is in the 8 position in the aromatic ring are very selective 5-HT1A receptor agonists having little or no dopaminergic activity. […] These compounds are particularly effective anxiolytic and antidepressant agents. Other uses for these compounds include panic attacks, obsessive-compulsive disturbances, and senile dementia particularly the emotional disturbances seen in dementia disorders. In addition, central 5-HT receptor activation are believed to be involved in mediating sexual behavior. These compounds would be useful to stimulate sexual activity and to alleviate impotence.

The nature of series [1]: Bioavailability from ED50 values after s.c. and p.o. administration. The format is in vivo, rat. As to conditions: comparing ED50 values, reserpine-pretreated rats. The source says: ^f "Bioch" denotes the bioavailability as estimated by comparing the
ED50 values after s.c. and p.o. administration (reserpinepretreated rats)

In series [2] the test system is Reserpine Pretreated Rats. The series is described as follows: Gross behavior (antagonism of reserpine-induced neuroleptic syndrome). The format is in vivo, rat.
Source text: Antagonism of the reserpine-induced "neuroleptic syndrome" in the rat (gross behavior)
Depletion of the monoamine stores with reserpine brings about a "neuroleptic syndrome" characterized by hypomotility, catalepsy, muscle rigidity, hunch-backed posture as well as a number of other central and peripheral signs of monoamine depletion. The whole or parts of this syndrome can be reversed by the administration of drugs that stimulate dopamine or 5-HT receptors directly or indirectly.
Stimulation of the dopamine receptors, with apomorphine for example, gives rise to both locomotion and stereotyped behavior such as sniffing, gnawing and jumping. On the other hand, stimulation of the 5-HT receptors, with 5-hydroxytryptophane (5-HTP) combined with MAO-inhibitors for example, gives rise to a very different behavior.
as §1
^d The gross behavior of the animals was observed during the course o
the experiments. The 5HT behavioral syndrome consisted of flat body
psoture, abducted hind and forelegs, forepaw treading (pianoplaying) and […]

The nature of series [3]: Bioavailability from decrease in rectal temperature after s.c. and p.o. administration. The settings on record: rectal temperature decrease after s.c. (25.0 μmol/kg) and p.o. (100.0 μmol/kg); nonpretreated rats. In kind it is in vivo, rat. The source says: "Temp" denotes the bioavailabilty as estimated by comparing the decrease
in rectal temperature after s.c. (25.0 μmol/kg) and p.o. (100.0
μmol/kg) administration of the test drugs in nonpretreated rats (c.f.,
FIGS. 1 and 2). "Plasma" denotes the availability as estimated by […]

Series [4] is described as follows: Bioavailability from plasma drug levels (GC/MS) after s.c. and p.o. administration. In kind it is in vivo, rat. As to conditions: plasma drug levels by GC/MS after s.c. and p.o.; nonpretreated rats. The source says:
FIGS. 1 and 2). "Plasma" denotes the availability as estimated by
comparing plasma drug levels (measured by means of GC/MS) after s.c. and
p.o. administration of test drugs in nonpretreated rats.

The target in a further series is dopamine D2 receptor (Homo sapiens, UniProt P14416). The series is described as follows: In vitro binding, dopamine D2. The method, then: ^e The affinity of the test compounds for dopamine D2 receptor sites
was determined by calculating the IC50 value (see text).

Series [5] relates to spontaneously hypertensive rats. The series is described as follows: Blood pressure lowering in spontaneously hypertensive rats. In kind it is in vivo, rat. The source says: Pharmacol. 37, 263-265 (1984). Without further elaboration,it is believed that one skilled in the art can, using the preceding description, practice the present invention to its fullest extent.

Read-outs that look alike come from different tables or passages of the source.

Sequence of dopamine D2 receptor (P14416 whole entry, species assumed): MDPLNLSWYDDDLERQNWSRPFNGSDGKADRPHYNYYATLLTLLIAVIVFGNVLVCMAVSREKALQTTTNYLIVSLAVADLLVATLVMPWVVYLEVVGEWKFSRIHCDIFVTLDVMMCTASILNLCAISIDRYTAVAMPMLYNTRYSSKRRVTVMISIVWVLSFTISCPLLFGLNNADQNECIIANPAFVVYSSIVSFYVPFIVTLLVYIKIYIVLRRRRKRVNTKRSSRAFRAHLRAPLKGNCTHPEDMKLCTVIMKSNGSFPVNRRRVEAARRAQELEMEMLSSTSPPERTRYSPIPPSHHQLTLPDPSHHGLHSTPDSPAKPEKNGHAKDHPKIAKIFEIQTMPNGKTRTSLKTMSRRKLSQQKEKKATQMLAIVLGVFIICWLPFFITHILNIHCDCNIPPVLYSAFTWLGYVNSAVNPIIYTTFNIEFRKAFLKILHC

Take `O=C1CC2(CCCC2)CC(=O)N1CCCCN1CCN(c2ncccn2)CC1` [Buspirone]: the “dopamine receptor antagonism / agonism” value in the series on dopamine receptors was “antagonizes dopamine receptors at the same dose it stimulates 5-HT1A receptors”.

With `CCCN(CC1CC1)C1CCc2cccc(OC)c2C1` (stereo not shown) [Example 8-OMe-CPMAT, 8Methoxy-2-(N-cyclopropylmethyl-N-n-propylamino)tetralin], the figures for the “ED50 5-HTP limb” value in the series on 5-HT receptor (po) and in the series with 5-HT receptor (sc) were 3.3 µmol/kg and 0.40 µmol/kg, respectively. For the same compound, the IC50 (in general, the concentration at which inhibition is half-maximal) on 5-HT1A receptor (in vitro binding, read-out: In vitro binding 5-HT1A IC50) stood at 6 nM. In addition, the Bioavailability bioch po/sc in series [1] was 12%. Besides, the Behavior in series [2] (po) and in series [2] (sc) was 5-HT syndr in each case.

Consider `COc1cccc2c1CC(N(CC1CC1)CC1CC1)CC2` (stereo not shown) [Example 8-OMe-DCPMAT, 8Methoxy-2-(N,N-dicyclopropylmethylamino)tetralin], for which the results for the “ED50 5-HTP limb” value in the series with 5-HT receptor (po) and with 5-HT receptor (sc) were 2.0 µmol/kg and 1.2 µmol/kg, respectively. In addition, the Bioavailability temp po/sc in series [3] worked out at 36%. For the same compound, the IC50 is 21 nM on 5-HT1A receptor and 40000 nM at dopamine D2 receptor. Further, the “IC50 ratio of dopamine D2 to 5HT1A in vitro binding (selectivity)” value at 5-HT1A receptor (in vitro binding, Table 1 data) was “demonstrates the selectivity for the 5-HT1A receptor”. Further, the Bioavailability plasma po/sc in series [4] is on record as 6-16%. In addition, the Bioavailability bioch po/sc in series [1] stood at 60%. In addition, the Behavior in series [2] (po) and in [2] (sc) was 5-HT syndr in each case.

On to `COc1cccc2c1C[C@H](N(CC1CC1)CC1CC1)CC2` [Example 12, (+)-R-8-Methoxy-2-(di-cyclopropyl-methylamino)tetralin], for which the “blood pressure lowering effects” value in series [5] is recorded as “demonstrate blood pressure lowering effects”.

Turning to `COc1cccc2c1CC(N(CCc1cccs1)CC1CC1)CC2` (stereo not shown) [Example 17, 8-Methoxy-2-(N-cyclopropylmethyl-N-(2-thiophenethyl)-amino)tetralin], in [5], the “blood pressure lowering effects” value is “demonstrate blood pressure lowering effects”.

Consider `CC1(C)CC(=O)N(CCCCN2CCN(c3ncccn3)CC2)C(=O)C1` [Gepirone], for which, in the series with dopamine receptors, the “dopamine receptor antagonism / agonism” value was “has dopamine antagonist properties”.

`CN1CCc2cccc3c2[C@H]1Cc1ccc(O)c(O)c1-3` [apomorphine]: the “dopamine receptor antagonism / agonism” value in the series on dopamine receptors is “able to activate the dopamine autoreceptors as well as the post synaptic dopamine receptors”.

As to “(-)-R-8-Methoxy-2-(di-cyclopropylmethylamino)tetralin [Example 13]”, the “blood pressure lowering effects” value in [5] is “demonstrate blood pressure lowering effects”.
